Patent publication US6015820A, “4-Aryl-thio-pyridin-2(1H)-ones, medicines containing them and their uses in the treatment of illnesses linked to HIV” (priority 1995, dated 2000)

Key:
[1] = cytotoxicity on MT4 cells; type: cell-based; conditions: human, Table 4, line HIV-1 IIIB/MT4
Method: (§1) In parallel experiments, the cytotoxicity of the molecules was measured on non-infected cells, after an incubation of 5 days in the presence of these molecules, by using a […] titration (MTT test) based on the ability of the mitochondrial dehydrogenases of the living cells to reduce 3-(4,5-dimethylthiazol-2-yl)-2,5-diphenyltetrazolium bromide in formazan (Mosmann et al. J. Immunol. Methods ([…]), 65, 55-63). The concentration cytotoxic at 50% (CC50) is the concentration at which the DO540 has been reduced to half and is calculated by using the program mentioned above.

[2] = molecular target: T1, inverse transcriptase of HIV-1 (HIV-1 M:B_ARV2/SF2, UniProt P03369); experiment: inverse transcription with HIV-1 RNA as natural matrix (complementary DNA, gel); type: biochemical; conditions: FIG. 10; compound 7c 40-400 nM
Method: FIG. 10 illustrates the dose effect of compound 7c on the inhibition of the inverse transcriptase of HIV-1. The expected complementary DNA, 147 nucleotides long, is shown to the left of the gel (well 1). Wells 2 to 5 correspond to decreasing concentrations of compound 7c (well 2: 400 nM, well 3: 300 nM: well 4: 100 nM and well 5: 40 nM).
The pmCG6 plasmid containing the nucleotide fragment 1-4005 of the HIV-1 (pmal) in psP64, under the control of the promoter of the T7 bacteriophage was provided by Dr. J. L. Darlix. A strain of E.coli HB 101 (1035) recA was used for the amplification of the plasmid. After digestion of this clone with Hinc II and transcription in vitro by using the RNA T7 polymerase, RNAs were obtained from the +50 position of the pmal sequence. The transcription was carried out in vitro and the inverse transcription in the manner described by B. Bordier et al. (1992 Nucleic Acids Res. 20, 5999-6006).
All the compounds were dissolved in dimethyl#sulphoxide (DMSO). The test samples were prepared in the presence of the same final concentration of DMSO. IC50 is the concentration required to inhibit the activity of the IT of the recombinant HIV-1 by 50%.

[3] = molecular target: T1, inverse transcriptase of HIV-1; experiment: enzymatic kinetic analysis of IT inhibition (Lineweaver-Burk); type: biochemical
Method: FIG. 12 is a double-reciprocal (Lineweaver-Burk) representation of the inhibition of the inverse transcriptase of HIV-1 by compound 7c with the poly C-oligo dG as a matrix-primer couple and dGPT as substrate.
FIG. 13 is a double-reciprocal representation, similar to […], in which the poly A-oligo dT is used as a matrix-primer couple and dTTP as substrate.
Incubation was carried out at 37° C. for 10 minutes in the presence of various matrix-primers.
a) Poly C-oligo dG: the reaction mixture contained a final volume of 0.05 ml, Tris-HCl 50 mM pH 8.0, MgCl2 5 mM, dithiothreitol 4 mM, 0.48 A260 /ml of poly C-oligo dG (5:1), 1.0 μCi of [^3 H]dGTP (28 Ci/mmole), dGTP 2 μM, KCl 80 mM, 1 μg of bovine serum albumin and IT 20-50 nM.
b) Poly A-oligo dT: the same conditions as in a), except that 0.48 A260 /ml of poly A-oligo dT (5:1), 0.5 μCi of [^3 H]dTTP (46 Ci/mmole), dTTP 20 μM were used.
The reactions were stopped by adding in the cold 1 ml of 10% trichloroacetic acid plus sodium pyrophosphate 0.1 M. The precipitates were filtered through nitrocellulose membranes, washed with 2% trichloroacetic acid, dried and counted in a PPO/POPOP/toluene scintillation mixture.

[4] = system: HIV-1 6 type D (primary isolate); experiment: anti-HIV-1 activity, HIV-1 6 type D (primary isolate)/PBMC; type: cell-based; conditions: Human immunodeficiency virus 1, Table 4
Method: The virus production was measured by quantifying the activity of the inverse transcriptase associated with viral particles released into the culture supernatant. In short, cells were infected with 100 TCID50 for 30 minutes; after adsorption of the virus, unbound particles were removed by two washings and the cells were cultivated in the presence of different concentrations of the compounds tested for 5 days before determining the viral production. The concentration inhibiting 50% of the viral multiplication (IC50) came from the computer plot of the median effect of the dose effect results (Chou et al. Elsevier Science Publishers, Cambridge U.K. (1985), 19-28).
Thirty two compounds according to the invention were studied for their anti-HIV-1 biological activity. […] This compound was then tested with other colonies and other cell lines (Table 4).

[5] = cytotoxicity on PBMC; type: cell-based; conditions: human; Table 4; line HIV-1 IIIB/PBMC
Method: as §1

[6] = system: PBMC; experiment: cytotoxicity on PBMC; type: cell-based; conditions: Table 4, 7200 min
Method: as §1

CCc1c(C)[nH]c(=O)c([N+](=O)[O-])c1Sc1cc(C)cc(C)c1 [Compound 7c, 5-ethyl-6-methyl-3-nitro-4-(3', 5'-dimethylphenyl)thio-pyridin-2(1H)-one]
CC50 at 120 h [1]: > 10 µM
inhibition with RNA from HIV-1 as natural matrix [2]: strong inhibition
type of inhibition ([3]; as regards dGTP substrate, poly C-oligo dG matrix-primer (FIG. 12)): non-competitive
type of inhibition ([3]; poly A-oligo dT matrix-primer, dTTP substrate (FIG. 13)): competitive
IC50 [4]: < 0.1 nM
CC50 at 120 h [5]: > 10 µM
CC50 ([6]; line HIV-1 6 type D/PBMC): > 10 µM
CC50 ([6]; line HIV-1 4200 type E/PBMC): > 10 µM
CC50 ([6]; line HIV-2 D194/PBMC): > 10 µM
